Measured values from patent publication EP0811621A2, “Carbamoyl substituted oxazoles as thromboxane receptor antagonists” (ELI LILLY AND COMPANY, priority 1996, dated 1997).
pIC50, pKd: −log10 of the molar value.

How the values were obtained:
pithed rats = experiment: Absence of Agonist Activity (pressor response after i.v. administration); type: in vivo
TXA2/PGH2 receptor = molecular target: T1, TXA2/PGH2 receptor (Homo sapiens, UniProt P21731); experiment: Receptor Binding Assay ([125I]IBOP, platelet membranes); conditions: 30 °C for 30 min
T1 construct: Membranes from outdated human platelets were prepared as previously described; from tissue; host or cells: human platelets (membranes)
T1 sequence (P21731 1-343): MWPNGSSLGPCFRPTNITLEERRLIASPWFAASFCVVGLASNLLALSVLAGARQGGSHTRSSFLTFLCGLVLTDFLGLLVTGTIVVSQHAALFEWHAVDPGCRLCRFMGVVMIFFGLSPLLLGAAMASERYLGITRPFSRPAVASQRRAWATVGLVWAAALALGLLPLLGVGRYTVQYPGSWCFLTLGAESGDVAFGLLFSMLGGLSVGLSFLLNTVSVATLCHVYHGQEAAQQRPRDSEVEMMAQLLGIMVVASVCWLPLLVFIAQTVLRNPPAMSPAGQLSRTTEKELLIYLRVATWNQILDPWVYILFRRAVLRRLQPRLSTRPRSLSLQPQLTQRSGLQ
Method: (§1) Measurement of Thromboxane Receptor Antagonism:
(§2) • 1. Receptor Binding Assay. Membranes from outdated human platelets were prepared as previously described (Mais, D. E., et al., Eur. J. Pharmacol. (1992), 227, 267-274). Incubations (220 µL) containing 10 µg of platelet membranes were performed in siliconized glass tubes (12 x 75 mm) at 30 °C for 30 min. The incubation media consisted of 10 mM Hepes, 2 mM CHAPS, 10 µM Indomethacin (pH = 7.4), ∼0.05 nM (∼25000 cpm) of [^125I]IBOP per tube, and varying concentrations of competing ligands ranging from 10^-10 to 10^-5 M. The reaction was terminated by addition of 4 mL of ice cold buffer (25 mM Tris) at pH 7.4, followed by rapid filtration through Whatman GF/C glass filters pre-soaked in 0.3% polyethyleneamine (Whatman, Inc., Clifton, NJ) using a Brandel M-24 cell harvester (Gaithersburg, MD). Non-specific binding was defined as that amount of radioactivity bound in the presence of a large molar excess (10 µM) of SQ29548, a potent TXA2/PGH2 receptor antagonist. The binding in this assay is defined in terms of the dissociation constant Kd. […] Platelet Aggregation Studies. The ability of a test compound to antagonize TXA2/PGH2 receptor-induced human platelet aggregation was studied in the following manner. Blood was collected from volunteers who denied taking any medication known to influence platelet aggregation within the previous 10 days. […] Platelet-rich plasma was prepared by centrifugation at 100 x g for 12 min, and platelet-poor plasma was prepared by centrifugation at 12,000 x g for 2 min. Receptor activation and subsequent platelet aggregation was induced by the addition of the stable analog of TXA2/PGH2, U46619 (1 micromolar). Aggregation was monitored in a Biodata PAP4 platelet aggregation profiler for 3 min after the addition of U46619. Test compound or vehicle was preincubated with platelet-rich plasma for 1 min at 37 °C prior to the induction of aggregation with U46619.

thromboxane synthase = molecular target: T2, thromboxane synthase (Homo sapiens, UniProt P24557); experiment: Thromboxane synthase inhibition in vitro (whole human blood, serum TXB2 by radioimmunoassay); type: cell-based; conditions: 30 min at 37 °C
T2 construct: from tissue; host or cells: whole human blood
T2 sequence (P24557 1-533): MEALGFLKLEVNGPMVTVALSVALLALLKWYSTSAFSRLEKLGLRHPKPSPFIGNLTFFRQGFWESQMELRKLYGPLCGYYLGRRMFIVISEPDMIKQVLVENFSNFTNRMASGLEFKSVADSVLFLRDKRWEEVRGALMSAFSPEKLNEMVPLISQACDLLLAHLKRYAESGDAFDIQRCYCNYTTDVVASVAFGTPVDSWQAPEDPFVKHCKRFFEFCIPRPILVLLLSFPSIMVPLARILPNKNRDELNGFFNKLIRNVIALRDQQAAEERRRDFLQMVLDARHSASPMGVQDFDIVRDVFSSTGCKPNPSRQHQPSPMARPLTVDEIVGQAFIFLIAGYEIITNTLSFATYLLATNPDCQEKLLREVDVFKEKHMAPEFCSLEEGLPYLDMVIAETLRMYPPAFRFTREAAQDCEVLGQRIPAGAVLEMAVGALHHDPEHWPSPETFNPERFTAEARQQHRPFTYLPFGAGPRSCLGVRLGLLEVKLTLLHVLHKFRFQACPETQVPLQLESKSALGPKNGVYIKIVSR
Method: Measurement of Thromboxane Synthase Inhibition and Prostacyclin Formation:
(§3) • 1. In vitro Experiments. The ability of a test compound to inhibit thromboxane synthase, as well as to change the amount of prostacyclin formed, were measured using published methods. […] Serum TXB2 and 6-keto-PGF1a, the stable metabolites of TXA2 and prostacyclin (PGI2), respectively, were measured by radioimmunoassay as described (Jakubowski, J.A., et al., Arteriosclerosis, (1987), 7, 599-604). The ability of a test compound to inhibit thromboxane synthase is expressed in the form of its IC50. […] Sprague Dawley rats (300 g males) were dosed by oral gavage with either vehicle (5% acacia) or 1-10 mg/kg test compound. Blood samples were collected 1 h after dosing. Animals were anesthetized (sodium pentobarbitol, 87 mg/kg i.p.) 15 min before sample collection. Blood samples were obtained by cardiac puncture via a butterfly catheter and the first mL of blood was discarded. Blood samples were divided into duplicates and incubated at 37 °C for 1 h in 13x100 mm glass tubes. Serum was separated by centrifugation at 2000 x g for 15 min at 25 °C, transferred to polypropylene tubes, and stored at -20 °C for subsequent assay using the methods referenced above.

[1] = system: TXA2/PGH2 receptor-induced human platelet aggregation; experiment: Platelet Aggregation Studies (U46619-induced aggregation in platelet-rich plasma); type: cell-based; conditions: read-out: IC50, concentration of test compound required to inhibit U46619-induced platelet aggregation by 50%, U46619 (1 micromolar), 1 min preincubation at 37 °C
Method: as §1, §2

TXA2 formation = experiment: Ex vivo inhibition of TXA2 formation following oral administration; type: in vivo; conditions: Rattus norvegicus, 1 h, Sprague Dawley rats, oral gavage, one hour after dosing
Method: as §3

Structure (SMILES) | pKd (TXA2/PGH2 receptor) | pIC50 (thromboxane synthase) | pIC50 [1] | also measured
O=C(O)CCC/C=C\C[C@H]1[C@@H]2CC[C@@H](C2)[C@@H]1NS(=O)(=O)c1ccccc1 [Example S-145, reference compound] |  |  |  | mean arterial pressure (pithed rats; one minute after dosing at 0.1 mg/kg i.v.): transient, but significant, increase
O=C(O)CCCC/C=C(\c1ccc(-c2nc(C(=O)NCCCN3CCOCC3)co2)cc1)c1cccnc1 [Example 27, (E)-7-[4-[4-[[(3-Morpholinopropyl)amino]carbonyl]-2-oxazolyl]phenyl]-7-(3-pyridyl)hept-6-enoic Acid] | < 5.00 |  |  | 
O=C(O)CCCC/C=C(\c1ccc(C2=N[C@H](C(=O)NCCCCC3CCCCC3)CO2)cc1)c1cccnc1 [Example 1, (4S)-(E)-7-[4-[4-[[(4-Cyclohexylbutyl)amino]carbonyl]-4,5-dihydro-2-oxazolyl]phenyl]-7-(3-pyridyl)hept-6-enoic Acid] |  | 7.09 |  | 
O=C(O)CCCC/C=C(/c1ccc(C2=N[C@H](C(=O)NCCCCC3CCCCC3)CO2)cc1)c1cccnc1 [Example 3, (4S)-(Z)-7-[4-[4-[[(4-Cyclohexylbutyl)amino]carbonyl]-4,5-dihydro-2-oxazolyl]phenyl]-7-(3-pyridyl)hept-6-enoic Acid] |  | < 5.00 |  | 
O=C(O)CCCC/C=C(/c1ccc(-c2nc(C(=O)NCCCCC3CCCCC3)co2)cc1)c1cccnc1 [Example 4, (Z)-7-[4-[4-[[(4-Cyclohexylbutyl)amino]carbonyl]-2-oxazolyl]phenyl]-7-(3-pyridyl)hept-6-enoic Acid] |  | < 5.00 |  | 
O=C(O)CCCC/C=C(\c1ccc(-c2nc(C(=O)NCCCCOc3ccccc3)co2)cc1)c1cccnc1 [Example 30, (E)-7-[4-[4-[[(4-Phenoxybutyl)amino]carbonyl]-2-oxazolyl]phenyl]-7-(3-pyridyl)hept-6-enoic Acid] | 7.28 | 7.31 | 6.30 | 
CC(OCCCNC(=O)c1coc(-c2ccc(/C(=C\CCCCC(=O)O)c3cccnc3)cc2)n1)C1CCCCC1 (centres unmarked) [Example 26, (E)-7-[4-[4-[[[3-(1-Cyclohexylethoxy)propyl]amino]carbonyl)-2-oxazolyl]phenyl]-7-(3-pyridyl)hept-6-enoic Acid] | 7.24 | 7.94 | 5.30 | 
O=C(O)CCCC/C=C(\c1ccc(-c2nc(C(=O)N[C@@H]3C[C@H]3c3ccccc3)co2)cc1)c1cccnc1 (single isomer, unassigned) [Example 19, (+)-(E)-7-[4-[4-[[(2-(trans)Phenylcyclopropyl)amino]carbonyl]-2-oxazolyl]phenyl]-7-(3-pyridyl)hept-6-enoic Acid] |  |  | 5.30 | 
O=C(O)CCCC/C=C(\c1ccc(-c2nc(C(=O)NCCCCC3CCCCC3)co2)cc1)c1cccnc1 [Example 2, (E)-7-[4-[4-[[(4-Cyclohexylbutyl)amino]carbonyl]-2-oxazolyl]phenyl]-7-(3-pyridyl)hept-6-enoic Acid] | 8.00 | 7.26 | 6.40 | pressor response (TXA2 agonist activity) (pithed rats; pithed rats, i.v., doses up to 10 mg/kg): absence of a pressor response; inhibition at 3 mg/kg (TXA2 formation): > 95%
